Ten molecules from ChEMBL document CHEMBL1201862, “PubChem BioAssay data set” (2004) can be followed below.

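Values below derive from 48-hour exposures of cells grown in 96-well plates, with endpoints linearly interpolated between the two concentrations bracketing the appropriate inhibition level. The concentration for 50% growth inhibition is given as GI50.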 Calls of active or inactive are those of the source. No stated cut-off is given here; in the data, active = GI50 up to about 1.1 µM and inactive = higher. Residues, ends and D or L forms follow the SMILES beside them.

Test systems include A498; A549; CAKI-1; DU-145; EKVX; HL-60; HOP-92; HT-29; IGROV-1; K562; LOX IMVI; MCF7; MDA-MB-231; NCI-H522; NCI/ADR-RES; RXF 393; SF-268; SF-295; SN12C; SNB-75.
Common to all, as to assay: NCI anticancer screen, dose series, 48 h

As to `CC(NC(=O)c1ccccc1)(C(=O)O)C(=O)O`, the GI50 in the test on A498, in the test with A549, in the test on CAKI-1, in the test with DU-145, with EKVX and in the test with HL-60 was > 100 µM (inactive) in each case. Also, the GI50 in the test on HOP-92 was 83 µM (inactive); with HT-29 it was > 100 µM (inactive); with IGROV-1 it was > 100 µM (inactive); in the test on K562, > 100 µM (inactive); with LOX IMVI, > 100 µM (inactive); in the test with MCF7, > 100 µM (inactive). For the same molecule, the GI50 with MDA-MB-231, in the test with NCI-H522, with NCI/ADR-RES, in the test with RXF 393, in the test with SF-268 and in the test with SF-295 was > 100 µM (inactive) each time. Also, the GI50 in the test with SN12C and with SNB-75 was > 100 µM (inactive) each time.

In the case of `CC(=O)NC(CO)C(=O)NC(Cc1ccc(O)cc1)C(=O)NCC(N)=O` (stereo not drawn) (Ac-Ser-Tyr-Gly-NH2; configuration not given here), the GI50 in the test with A498, with A549, in the test on CAKI-1, with DU-145, with EKVX and in the test with HL-60 was > 100 µM (inactive) each time. Moreover, the GI50 in the test with HOP-92, in the test with HT-29, with IGROV-1, with K562, in the test on LOX IMVI and in the test on MCF7 was > 100 µM (inactive) throughout. The GI50 with MDA-MB-231 was > 100 µM (inactive); in the test on NCI-H522, 74.5 µM (inactive); in the test on NCI/ADR-RES it was > 100 µM (inactive); with RXF 393, > 100 µM (inactive); in the test on SF-268, > 100 µM (inactive); in the test on SF-295, > 100 µM (inactive). Further, the GI50 in the test on SN12C and with SNB-75 was > 100 µM (inactive) throughout.

Turning to `COc1ccc(C2c3cc4c(cc3OC(N3CCOCC3)C2C)OCO4)c(OC)c1` (stereo not given), the GI50 is 4.68 µM (inactive) in the test with A498; 7.43 µM (inactive) in the test on A549; 4.47 µM (inactive) in the test with CAKI-1; 9.89 µM (inactive) with DU-145; 13.9 µM (inactive) in the test with EKVX; 2.7 µM (inactive) with HL-60. The GI50 was 3.32 µM (inactive) in the test on HOP-92; 3.48 µM (inactive) with HT-29; 7.59 µM (inactive) in the test with IGROV-1; 3.02 µM (inactive) in the test with K562; 4.27 µM (inactive) with LOX IMVI; 4.59 µM (inactive) in the test on MCF7. Also, the GI50 in the test on MDA-MB-231 was 8.69 µM (inactive); with NCI-H522 it was 2.68 µM (inactive); in the test on NCI/ADR-RES it was 2.71 µM (inactive); in the test on RXF 393, 2.94 µM (inactive); with SF-268, 6.95 µM (inactive); in the test with SF-295, 3.48 µM (inactive). For the same molecule, the GI50 with SN12C is 10.7 µM (inactive); with SNB-75 it was 3.95 µM (inactive).

As to `C=C(Cl)C(Cl)(CBr)CCCC(C)(C)Cl` (stereo not given), the GI50 in the test with A498 is 19.8 µM (inactive); in the test with A549, 14.6 µM (inactive); in the test on CAKI-1, 1.99 µM (inactive); in the test on DU-145, 10.9 µM (inactive); in the test with EKVX, 18.5 µM (inactive); with HL-60 it was 1.53 µM (inactive). Also, the GI50 in the test on HOP-92 was 2.41 µM (inactive); in the test with HT-29, 1.97 µM (inactive); in the test on IGROV-1, 33.3 µM (inactive); in the test with K562, > 42 µM (inactive); in the test on LOX IMVI, 11.9 µM (inactive); in the test with MCF7, 7.1 µM (inactive). The GI50 in the test on MDA-MB-231 is > 38.6 µM (inactive); in the test with NCI-H522, 9.25 µM (inactive); in the test with NCI/ADR-RES it was 30.4 µM (inactive); in the test on RXF 393, 17.7 µM (inactive); in the test with SF-268, 12.7 µM (inactive); in the test with SF-295 it was 7.55 µM (inactive). The figures for the GI50 with SN12C and with SNB-75 were 60.8 µM (inactive) and 4.48 µM (inactive), respectively.

Regarding `COc1ccc(-c2cn3c(n2)sc2cc(C)ccc23)cc1`, the GI50 in the test on A498 is 21.3 µM (inactive); in the test with A549, 24.4 µM (inactive); with CAKI-1, 57.5 µM (inactive); in the test on DU-145, 23.2 µM (inactive); with EKVX, 4.73 µM (inactive); in the test with HL-60, 3.45 µM (inactive). In addition, the GI50 was 2.86 µM (inactive) in the test on HOP-92; 5.96 µM (inactive) in the test on HT-29; 7.19 µM (inactive) with IGROV-1; 3.64 µM (inactive) with K562; 17.5 µM (inactive) in the test on LOX IMVI; 4.85 µM (inactive) in the test with MCF7. Further, the GI50 was 15.5 µM (inactive) in the test on MDA-MB-231; 5.55 µM (inactive) with NCI-H522; > 100 µM (inactive) in the test with NCI/ADR-RES; 16.6 µM (inactive) with RXF 393; 22.8 µM (inactive) with SF-268; 16.8 µM (inactive) in the test on SF-295. Besides, the GI50 with SN12C is 23.7 µM (inactive); in the test on SNB-75 it was 17.4 µM (inactive).

For the molecule `CN1CCN(c2ccc([N+](=O)[O-])c3no[n+]([O-])c23)CC1`, the GI50 with A498 is 1.04 µM (active); in the test with A549, 0.207 µM (active); with CAKI-1, 0.032 µM (active); with DU-145, 0.141 µM (active); with EKVX it was 1.19 µM (inactive); in the test on HL-60, 0.0366 µM (active). Moreover, the GI50 with HOP-92 is 0.526 µM (active); in the test on HT-29 it was 0.18 µM (active); in the test on IGROV-1, 0.0719 µM (active); in the test on K562, 0.0881 µM (active); in the test with LOX IMVI, 0.0485 µM (active); in the test on MCF7, 0.0817 µM (active). The GI50 is 1.34 µM (inactive) with MDA-MB-231; 0.0295 µM (active) in the test with NCI-H522; 0.161 µM (active) in the test with NCI/ADR-RES; 0.122 µM (active) in the test with RXF 393; 0.0375 µM (active) with SF-268; 0.0424 µM (active) in the test with SF-295. Besides, the GI50 is 0.106 µM (active) with SN12C and 0.0103 µM (active) in the test on SNB-75.

Regarding `CC(=O)OC(C)C1C2=C(C(=O)CC1(C)O)C(=O)c1c(ccc(-c3ccc4c(c3O)C(=O)C3=C(C4=O)C(C(C)OC(C)=O)C(C)(O)CC3=O)c1O)C2=O` (stereo not given), the GI50 in the test on A498 was 2.86 µM (inactive); with A549 it was 5.47 µM (inactive); with CAKI-1 it was 2.82 µM (inactive); in the test with DU-145, 5.78 µM (inactive); in the test with EKVX, 4.36 µM (inactive); in the test on HL-60 it was 0.398 µM (active). The GI50 was 1.57 µM (inactive) in the test with HOP-92; 1.72 µM (inactive) with HT-29; 9.12 µM (inactive) in the test with IGROV-1; 0.701 µM (active) in the test with K562; 1.42 µM (inactive) with LOX IMVI; 1.53 µM (inactive) with MCF7. Besides, the GI50 was 2.42 µM (inactive) with MDA-MB-231; 1.56 µM (inactive) with NCI-H522; 15.8 µM (inactive) in the test on NCI/ADR-RES; 1.74 µM (inactive) in the test with RXF 393; 2.95 µM (inactive) in the test with SF-268; 11.6 µM (inactive) in the test on SF-295. In addition, the GI50 was 2.82 µM (inactive) in the test on SN12C and 2.49 µM (inactive) in the test on SNB-75.

For `C=C(Cl)/C(=C\Cl)CCC(Cl)C(C)C` (stereo not given), the GI50 was > 100 µM (inactive) with A498; > 100 µM (inactive) with A549; > 100 µM (inactive) in the test with CAKI-1; > 100 µM (inactive) with DU-145; > 100 µM (inactive) in the test on EKVX; 56.2 µM (inactive) in the test with HL-60. In addition, the GI50 in the test on HOP-92 was > 100 µM (inactive); in the test with HT-29 it was > 100 µM (inactive); in the test on IGROV-1 it was > 100 µM (inactive); with K562 it was 54.3 µM (inactive); in the test on LOX IMVI, 35.1 µM (inactive); in the test on MCF7 it was > 100 µM (inactive). Moreover, the GI50 in the test on MDA-MB-231 is > 100 µM (inactive); in the test on NCI-H522, 59.4 µM (inactive); in the test with NCI/ADR-RES, > 100 µM (inactive); in the test with RXF 393 it was > 100 µM (inactive); in the test with SF-268 it was > 100 µM (inactive); in the test on SF-295, > 100 µM (inactive). Further, the GI50 in the test on SN12C and in the test with SNB-75 was > 100 µM (inactive) throughout.

With `COc1cc(NCc2ccc3n2-c2ccccc2OC3)cc(OC)c1OC`, the GI50 is 13.5 µM (inactive) in the test with A498; 17.6 µM (inactive) in the test on A549; 27 µM (inactive) in the test with CAKI-1; 72.1 µM (inactive) in the test on DU-145; 9.71 µM (inactive) in the test on EKVX; 17.7 µM (inactive) with HL-60. The GI50 with HOP-92 is 11 µM (inactive); in the test with HT-29 it was 35.5 µM (inactive); in the test with IGROV-1, 14 µM (inactive); with K562 it was 8.36 µM (inactive); with LOX IMVI, 10.4 µM (inactive); with MCF7, 14.1 µM (inactive). Also, the GI50 was 14.4 µM (inactive) in the test on MDA-MB-231; 12.7 µM (inactive) in the test on NCI-H522; 4.25 µM (inactive) in the test with NCI/ADR-RES; 24.6 µM (inactive) in the test with RXF 393; 46.5 µM (inactive) with SF-268; 23.8 µM (inactive) in the test on SF-295. Besides, the GI50 was 17.5 µM (inactive) in the test on SN12C and 23.8 µM (inactive) in the test on SNB-75.

Consider `CC1(C)CCC(=O)NC1CC(=O)CC1NC(=O)CCC1(C)C` (stereo not given), for which the GI50 in the test with A498 is > 100 µM (inactive); in the test with A549 it was > 100 µM (inactive); in the test on CAKI-1, > 100 µM (inactive); in the test on DU-145, > 100 µM (inactive); in the test with EKVX, > 100 µM (inactive); in the test on HL-60, 32.7 µM (inactive). Also, the GI50 in the test on HOP-92, in the test on HT-29, with IGROV-1, with K562, in the test on LOX IMVI and in the test with MCF7 was > 100 µM (inactive) each time. The GI50 in the test with MDA-MB-231, with NCI-H522, with NCI/ADR-RES, in the test with RXF 393, in the test with SF-268 and in the test with SF-295 was > 100 µM (inactive) in each case. In addition, the GI50 with SN12C and with SNB-75 was > 100 µM (inactive) throughout.
